Reference: patent EP1202959B1, “AMINOBENZOPHENONES AS INHIBITORS OF IL-1-BETA AND TNF-ALPHA” (LEO PHARMA A/S, priority 1999, dated 2001)

What was measured:
Assay type in all cases: cell-based
IL-1β = assay: Inhibition of IL-1β secretion in LPS stimulated peripheral blood mononuclear cells (ELISA); conditions: PBMC; LPS stimulated human peripheral blood mononuclear cells; compounds added 30 minutes before LPS; incubated 18 hours; read-out: The median inhibition concentration (IC50, nM) of IL-1β
Protocol: (§1) To study the effect of the compound of the present invention in vitro the inhibition of the IL-1β and TNF-α secretion was measured using the following procedure:
(§2) Cytokine production was measured in the media from lipopolysaccharide (LPS) stimulated peripheral blood mononuclear cells. The mononuclear cells were isolated from human peripheral blood by Lymphoprep® (Nycomed, Norway) fractionation and suspended in RPMI 1640 (growth medium) with foetal calv serum (FCS, 2%), at a concentration of 5 x 10^5 cells/ml. The cells were incubated in 24-well tissue culture plates in 1 ml aliquots. Test compounds were dissolved in dimethylsulfoxide (DMSO, 10 mM) and were diluted with the medium. Compounds were added to the cells for 30 minutes, then LPS ([…] final concentration) was added. The plates were incubated for 18 hours, and the concentration of IL-1β and TNF-α in the medium was determined by enzyme-linked immunosorbent assays. The median inhibitory concentrations (IC50) of the compounds were calculated.

TNF-α = assay: Inhibition of TNF-α secretion in LPS stimulated peripheral blood mononuclear cells (ELISA); conditions: PBMC; LPS stimulated human peripheral blood mononuclear cells; compounds added 30 minutes before LPS; incubated 18 hours; read-out: The median inhibition concentration (IC50, nM) of TNF-α
Protocol: as §1, §2

[1] = system: Human polymorphonuclear (PMN) granulocytes; assay: Inhibition of PMN superoxide secretion (superoxide dismutase inhibitable reduction of ferricytochrome C); conditions: human PMN granulocytes primed with TNF-α (3 ng/ml), stimulated with fMLP (10^-7 M); read-out: The median inhibition concentration (IC50, nM) of PMN-superoxide
Protocol: The compounds of the present invention also show similar activities in the ability to inhibit PMN (polymorphonuclear) superoxide secretion which is also indicative of potentially useful anti-inflammatory drugs. The compounds were tested using the following procedure: Human polymorphonuclear (PMN) granulocytes were isolated from human blood by dextran sedimentation, Lymphoprep® fractionation and hypotonic lysis of contaminating erythrocytes. Superoxide anion generation was measured as the superoxide dismutase inhibitable reduction of ferricytochrome C (Madhu, S.B. et al, Inflammation, 16, 241, (1992)). The cells were suspended in Hanks' balanced salt solution, and incubated for 10 minutes at 37°C with test compounds. The cells were primed by the addition of TNF-α (3 ng/ml final concentration) for 10 minutes, and then ferricytochrome C, (final concentration 750µg/ml), bovine serum albumin (BSA, final concentration 1 mg/ml) and formyl-methionyl-leucyl-phenylalanine (fMLP, final concentration 10^-7 M) were added for 3 minutes. The cells were chilled on ice, and were spun down. The optical densities in the cell-free supernatant was measured in a spectrophotometer. The median inhibitory concentration (IC50) of the compounds was calculated.

Row | SMILES | IC50 (IL-1β) [nM] | IC50 (TNF-α) [nM] | IC50 [1] [nM]
1 | Cc1ccccc1C(=O)c1ccc(Nc2ccccc2NC(=O)Oc2ccccc2)cc1Cl [Compound 105, Phenyl N-[2-[3-chloro-4-(2-methylbenzoyl)-phenylamino]phenyl]carbamate] | 50 | 10 | 100
2 | CC(=O)OCOC(=O)Nc1ccccc1Nc1ccc(C(=O)c2ccccc2C)c(Cl)c1 [Compound 109, 1-Acetoxymethyl N-[2-[3-chloro-4-(2-methylbenzoyl)-phenylamino]phenyl]carbamate] | 32 | 6.3 | 40
3 | Cc1ccccc1C(=O)c1ccc(Nc2ccccc2N)cc1Cl [ref. a), 4-(2-Aminophenylamino)-2-chloro-2'-methylbenzophenone] | 13 | 7.1 | 5
4 | CCOC(=O)Nc1ccccc1Nc1ccc(C(=O)c2ccccc2C)c(Cl)c1 [ref. b), Ethyl N-[2-[3-chloro-4-(2-methylbenzoyl)-phenylamino]phenyl]carbamate] | 32 | 5 | 5
